Patent publication US20240124450A1, “Novel SIK Inhibitors” (Pfizer Inc., priority 2022, published 2024)
Read-outs that look alike come from different tables or passages of the source.

Key:
SIK1 = SIK1 (Homo sapiens (Human), UniProt P57059); test: Pan SIK MS IC50 enzyme assay (SIK1); assay type: biochemical; conditions: 1 mM ATP, substrate peptide AQT0868, LCMS/MS detection
Procedure: (§1) Enzyme Assay: Pan SIK MS IC50 Assay
(§2) Salt Induced Kinase (SIK) activity is determined by measuring the effect of a test agent on the activity of the appropriate SIK enzyme to phosphorylate its corresponding substrate. […] The phosphorylated substrate product resulting from the kinase reaction is detected by LCMS/MS, and the area under the peak curve correlates with kinase activity. […] The plates are spun at 1000 rpm for 30 seconds to ensure compounds are at the bottom of the well before removing foil covers. 0.15 μL HPE (assay std) and ZPE (DMSO) are added to the ARP using an HP D300 dispenser. Plates are spun again at 1000 rpm for 30 seconds. […] Plates are spun at 1000 rpm for 30 seconds. Plates are then sealed and incubated at RT for 10 minutes. Following incubation, 5 μL of 5× peptide reagent is added with a Multidrop Combi and designated small volume cassette to initiate the kinase reaction. Plates are spun at 1000 rpm for 30 seconds. Plates are then sealed and incubated at RT for 90 minutes. The assay is stopped by the addition of 5 μl of 120 mM EDTA added with a Multidrop Combi and designated small volume cassette (20 mM final concentration). Plates are spun at 1000 rpm for 30 seconds. 10 μl of the final reaction mix from each of the three individual enzyme plates are transferred by a Platemate Plus to the same corresponding 96 well deepwell plate containing 70 μl Water/Methanol (85/15%) for multiplex MS detection ([…]). Using Activity Base (ABase), an idbs data analysis software tool, the reported area ratio unit data is associated to compound, batch and dose information, the data is evaluated for quality, and the percent inhibition of each well is calculated. The data from each Max effect/HPE and Min effect/ZPE control wells are assessed, and outliers are excluded from all further calculations. The mean and standard deviation of the HPE and ZPE are then calculated for each plate, along with the Z Prime. The compound data is converted into % effect, using the average ZPE and HPE controls as 0% and 100% activity, respectively.

SIK2 = SIK2 (Homo sapiens (Human), UniProt Q9H0K1); test: Pan SIK MS IC50 enzyme assay (SIK2); assay type: biochemical; conditions: 1 mM ATP, substrate peptide AQT0252, LCMS/MS detection
Sequence of SIK2 (Q9H0K1 whole entry, species assumed): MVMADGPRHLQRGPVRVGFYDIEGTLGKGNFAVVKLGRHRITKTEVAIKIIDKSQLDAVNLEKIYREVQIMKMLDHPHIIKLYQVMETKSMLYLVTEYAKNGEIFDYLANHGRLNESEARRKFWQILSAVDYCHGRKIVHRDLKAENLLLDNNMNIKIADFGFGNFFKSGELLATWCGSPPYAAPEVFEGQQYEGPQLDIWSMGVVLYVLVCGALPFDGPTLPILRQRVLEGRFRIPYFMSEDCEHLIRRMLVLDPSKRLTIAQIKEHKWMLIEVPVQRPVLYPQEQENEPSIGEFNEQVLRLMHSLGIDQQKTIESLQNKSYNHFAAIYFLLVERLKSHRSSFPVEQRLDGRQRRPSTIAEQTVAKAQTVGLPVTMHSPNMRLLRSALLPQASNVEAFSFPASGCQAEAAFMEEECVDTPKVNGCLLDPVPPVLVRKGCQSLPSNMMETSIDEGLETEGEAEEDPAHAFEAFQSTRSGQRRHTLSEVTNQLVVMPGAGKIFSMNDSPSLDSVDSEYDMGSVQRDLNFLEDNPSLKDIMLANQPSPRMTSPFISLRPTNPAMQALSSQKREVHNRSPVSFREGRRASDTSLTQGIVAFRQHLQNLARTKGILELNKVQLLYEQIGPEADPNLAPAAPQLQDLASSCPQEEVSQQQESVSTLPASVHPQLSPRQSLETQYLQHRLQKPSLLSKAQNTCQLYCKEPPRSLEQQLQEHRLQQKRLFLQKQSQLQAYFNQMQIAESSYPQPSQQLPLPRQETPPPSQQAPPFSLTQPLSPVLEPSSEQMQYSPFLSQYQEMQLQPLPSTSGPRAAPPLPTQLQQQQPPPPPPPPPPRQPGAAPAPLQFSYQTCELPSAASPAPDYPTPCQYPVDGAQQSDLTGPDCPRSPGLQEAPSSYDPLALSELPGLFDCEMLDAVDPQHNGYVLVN
Procedure: as §1, §2

SIK3 = SIK3 (Homo sapiens (Human), UniProt Q9Y2K2); test: Pan SIK MS IC50 enzyme assay (SIK3); assay type: biochemical; conditions: 1 mM ATP, substrate peptide AQT0508, LCMS/MS detection
Sequence of SIK3 (Q9Y2K2 whole entry, species assumed): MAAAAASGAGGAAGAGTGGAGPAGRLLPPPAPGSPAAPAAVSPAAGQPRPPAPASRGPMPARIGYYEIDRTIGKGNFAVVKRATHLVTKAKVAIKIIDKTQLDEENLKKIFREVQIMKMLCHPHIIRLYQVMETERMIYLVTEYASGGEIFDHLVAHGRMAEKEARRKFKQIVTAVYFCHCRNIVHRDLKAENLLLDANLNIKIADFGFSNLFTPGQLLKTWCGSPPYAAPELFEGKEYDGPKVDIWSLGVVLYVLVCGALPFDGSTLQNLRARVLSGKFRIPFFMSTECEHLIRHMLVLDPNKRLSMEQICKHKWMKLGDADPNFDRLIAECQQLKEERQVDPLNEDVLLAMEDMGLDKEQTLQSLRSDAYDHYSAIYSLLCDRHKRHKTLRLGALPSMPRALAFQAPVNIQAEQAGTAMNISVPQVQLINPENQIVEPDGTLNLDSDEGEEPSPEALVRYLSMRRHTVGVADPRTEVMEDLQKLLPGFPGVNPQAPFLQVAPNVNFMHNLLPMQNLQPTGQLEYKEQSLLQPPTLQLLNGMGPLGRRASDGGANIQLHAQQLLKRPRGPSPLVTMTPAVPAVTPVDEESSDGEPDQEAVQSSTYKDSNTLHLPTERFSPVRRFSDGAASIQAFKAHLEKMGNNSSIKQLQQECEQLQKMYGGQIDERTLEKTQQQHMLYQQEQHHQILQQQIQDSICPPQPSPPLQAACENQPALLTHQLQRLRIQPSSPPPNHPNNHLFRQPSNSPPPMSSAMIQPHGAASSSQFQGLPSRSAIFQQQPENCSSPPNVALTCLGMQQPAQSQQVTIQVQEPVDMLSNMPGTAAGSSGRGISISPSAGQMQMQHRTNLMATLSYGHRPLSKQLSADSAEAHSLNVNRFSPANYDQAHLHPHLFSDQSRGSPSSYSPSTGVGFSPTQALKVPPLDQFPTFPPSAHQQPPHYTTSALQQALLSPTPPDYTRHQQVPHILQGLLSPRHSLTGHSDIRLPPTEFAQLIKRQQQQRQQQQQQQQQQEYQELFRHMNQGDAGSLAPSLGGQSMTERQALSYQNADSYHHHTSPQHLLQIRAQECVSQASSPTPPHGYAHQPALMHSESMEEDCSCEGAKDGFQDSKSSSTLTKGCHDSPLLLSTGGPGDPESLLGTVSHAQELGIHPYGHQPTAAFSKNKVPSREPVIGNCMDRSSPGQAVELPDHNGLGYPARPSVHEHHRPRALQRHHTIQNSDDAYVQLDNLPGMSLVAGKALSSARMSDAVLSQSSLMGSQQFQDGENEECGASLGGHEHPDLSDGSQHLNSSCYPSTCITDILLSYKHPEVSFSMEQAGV
Procedure: as §1, §2

[1] = test system: TNFα release from human monocyte derived macrophages stimulated with LPS; test: SIK macrophage cytokine assay, inhibition of TNFα release; assay type: cell-based; conditions: 1 ng/mL LPS, 4 hours, HTRF, read-out: TNFa IC50
Procedure: (§3) Cytokine Assays: SIK Macrophage Assay Cytokine activity is determined by measuring the effect of a test agent on the inhibitory release of the cytokine TNFα and the increasing release of the cytokine IL10 from human monocyte derived macrophages (human macrophages) stimulated with lipopolysaccharide (LPS). At the time of assay, human macrophages (CGPS group Pfizer Groton, CT) are removed from cryopreservation, thawed quickly at 37° C., diluted in thaw medium (OptiMEM—Gibco medium, 10% heat inactivated fetal bovine serum (HIFBS)), and then centrifuged at 200×g for 10 minutes. […] After ˜60 minutes in an incubator at 37° C. in a humidified environment in 5% carbon dioxide the cells are stimulated by the addition of 5 μL of LPS (10 ng/mL; Sigma) and the assay plate is returned to an incubator at 37° C. in a humidified environment in 5% carbon dioxide for 4 hours. […] The final concentration of DMSO in the assay is approximately 0.1%. After 4 hours, the assay plate is removed from the incubator and centrifuged at 1500 rpm for 10 minutes. A portion of the resulting cell supernatant is then used to determine the amount of IL-10 and TNFα in each well. Cytokine measurements are made using human IL-10 and TNFα HTRF assay kits (Perkin Elmer) following the manufacturer's assay protocol.

[2] = test system: IL10 release from human monocyte derived macrophages stimulated with LPS; test: SIK macrophage cytokine assay, increase of IL10 release; assay type: cell-based; conditions: 1 ng/mL LPS, 4 hours, HTRF
Procedure: as §3

Sequence of SIK1 (P57059 whole entry, species assumed): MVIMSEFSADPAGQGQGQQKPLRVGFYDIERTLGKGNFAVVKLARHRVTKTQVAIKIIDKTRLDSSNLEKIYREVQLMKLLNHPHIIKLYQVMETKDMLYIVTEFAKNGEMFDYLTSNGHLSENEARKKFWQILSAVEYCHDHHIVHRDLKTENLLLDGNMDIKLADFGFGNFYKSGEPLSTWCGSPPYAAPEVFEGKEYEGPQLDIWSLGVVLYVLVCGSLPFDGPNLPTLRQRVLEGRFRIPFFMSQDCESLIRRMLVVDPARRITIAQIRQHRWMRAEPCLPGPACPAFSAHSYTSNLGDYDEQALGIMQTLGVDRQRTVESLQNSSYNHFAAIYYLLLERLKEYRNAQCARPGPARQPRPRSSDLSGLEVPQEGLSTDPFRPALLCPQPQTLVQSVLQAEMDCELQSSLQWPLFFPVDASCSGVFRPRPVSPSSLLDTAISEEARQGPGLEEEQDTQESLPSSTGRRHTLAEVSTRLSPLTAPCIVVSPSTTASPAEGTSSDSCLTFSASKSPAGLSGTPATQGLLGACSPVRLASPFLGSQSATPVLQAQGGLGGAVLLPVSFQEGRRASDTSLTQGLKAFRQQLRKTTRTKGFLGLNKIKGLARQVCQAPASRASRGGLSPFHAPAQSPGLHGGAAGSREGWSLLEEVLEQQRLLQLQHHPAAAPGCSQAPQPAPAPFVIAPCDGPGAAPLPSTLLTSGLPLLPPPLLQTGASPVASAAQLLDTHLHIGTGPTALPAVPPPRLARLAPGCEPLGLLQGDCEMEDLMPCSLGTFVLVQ

IC50 (SIK1) [nM]	IC50 (SIK2) [nM]	IC50 (SIK3) [nM]	IC50 ([1]; Macrophage) [nM]	EC50 ([2]; Macrophage) [nM]	Compound	IC50 [1] [nM]	EC50 [2] [nM]
			5.3	12	CC[C@@H]1CCC[C@@]1(N)COc1cc(-c2cnc3cccc(OC)n23)cc(SC)c1C#N (mixture of isomers) [Example 9, 2-(((1S,2R)-1-Amino-2-ethylcyclopentyl)methoxy)-4-(5-methoxyimidazo[1,2-a]pyridin-3-yl)-6-(methylthio)benzonitrile and 2-(((1R,2S)-1-amino-2-ethylcyclopentyl)methoxy)-4-(5-methoxyimidazo[1,2-a]pyridin-3-yl)-6-(methylthio)benzonitrile]		
			20.1	67	CSc1cc(-c2cnc3cccc(C#N)n23)cc(OC[C@@]2(N)CCC(F)(F)C2)c1C#N (mixture of isomers) [Example 12, (R)-3-(3-((1-Amino-3,3-difluorocyclopentyl)methoxy)-4-cyano-5-(methylthio)phenyl)imidazo[1,2-a]pyridine-5-carbonitrile and (S)-3-(3-((1-amino-3,3-difluorocyclopentyl)methoxy)-4-cyano-5-(methylthio)phenyl)imidazo[1,2-a]pyridine-5-carbonitrile]		
0.6	1.5	1.2	13.7	45	CSc1cc(-c2cnc3cccc(C#N)n23)cc(OC[C@@]2(N)CCCC(C)(C)C2)c1C#N (mixture of isomers) [Example 14, (R)-3-(3-((1-Amino-3,3-dimethylcyclohexyl)methoxy)-4-cyano-5-(methylthio)phenyl)imidazo[1,2-a]pyridine-5-carbonitrile and (S)-3-(3-((1-amino-3,3-dimethylcyclohexyl)methoxy)-4-cyano-5-(methylthio)phenyl)imidazo[1,2-a]pyridine-5-carbonitrile]		
1.6	1.3	5.9	32.4	357	CSc1cc(-c2cnc3ccccn23)cc(OC[C@]2(N)CCSC2)c1C#N (mixture of isomers) [Example 22, (R)-2-((3-Aminotetrahydrothiophen-3-yl)methoxy)-4-(imidazo[1,2-a]pyridin-3-yl)-6-(methylthio)benzonitrile and (S)-2-((3-Aminotetrahydrothiophen-3-yl)methoxy)-4-(imidazo[1,2-a]pyridin-3-yl)-6-(methylthio)benzonitrile]		
2.3	0.9	5.3	15.6	177	CSc1cc(-c2cnc3ccccn23)cc(OC[C@@]2(N)CCC(F)(F)C2)c1C#N (mixture of isomers) [Example 25, (R)-2-((1-Amino-3,3-difluorocyclopentyl)methoxy)-4-(imidazo[1,2-a]pyridin-3-yl)-6-(methylthio)benzonitrile and (S)-2-((1-amino-3,3-difluorocyclopentyl)methoxy)-4-(imidazo[1,2-a]pyridin-3-yl)-6-(methylthio)benzonitrile]		
10.9	9.9	23.4			CSc1cc(-c2cnc3ccccn23)cc(OC[C@@]2(N)CCC[C@H](C(F)(F)F)C2)c1C#N.CSc1cc(-c2cnc3ccccn23)cc(OC[C@]2(N)CCC[C@@H](C(F)(F)F)C2)c1C#N (mixture of isomers) [Example 33B, 2-(((1R,3S)-1-Amino-3-(trifluoromethyl)cyclohexyl)methoxy)-4-(imidazo[1,2-a]pyridin-3-yl)-6-(methylthio)benzonitrile and 2-(((1S,3R)-1-amino-3-(trifluoromethyl)cyclohexyl)methoxy)-4-(imidazo[1,2-a]pyridin-3-yl)-6-(methylthio)benzonitrile]	258	338
0.5	0.8	1.8	1.5	5	CC[C@@H]1CCC[C@@]1(N)COc1cc(-c2cnc3cccc(C#N)n23)cc(SC)c1C#N (racemic) [Example 7, 3-(3-(((1S,2R)-1-Amino-2-ethylcyclopentyl)methoxy)-4-cyano-5-(methylthio)phenyl)imidazo[1,2-a]pyridine-5-carbonitrile and 3-(3-(((1R,2S)-1-amino-2-ethylcyclopentyl)methoxy)-4-cyano-5-(methylthio)phenyl)imidazo[1,2-a]pyridine-5-carbonitrile]		
0.1	0.6	1	1.1	5	CC[C@H]1CCC[C@@](N)(COc2cc(-c3cnc4cccc(C#N)n34)cc(SC)c2C#N)C1 (racemic) [Example 18, 3-(3-(((1S,3S)-1-Amino-3-ethylcyclohexyl)methoxy)-4-cyano-5-(methylthio)phenyl)imidazo[1,2-a]pyridine-5-carbonitrile and 3-(3-(((1R,3R)-1-amino-3-ethylcyclohexyl)methoxy)-4-cyano-5-(methylthio)phenyl)imidazo[1,2-a]pyridine-5-carbonitrile]		
3.3	2.5	5.1	25.8	142	CSc1cc(-c2cnc3cccc(C#N)n23)cc(OCC2(N)CCSC2)c1C#N (racemic) [Example 27, (R)-3-(3-((3-aminotetrahydrothiophen-3-yl)methoxy)-4-cyano-5-(methylthio)phenyl)imidazo[1,2-a]pyridine-5-carbonitrile and (6)-3-(3-(((3-aminotetrahydrothiophen-3-yl)methoxy)-4-cyano-5-(methylthio)phenyl)imidazo[1,2-a]pyridine-5-carbonitrile]		
0.6	1	2.2	13.9	34	CSc1cc(-c2cnc3ccccn23)cc(OC[C@@]2(N)CCC[C@@H](C(F)(F)F)C2)c1C#N (racemic) [Example 33A, 2-(((1S,3S)-1-Amino-3-(trifluoromethyl)cyclohexyl)methoxy)-4-(imidazo[1,2-a]pyridin-3-yl)-6-(methylthio)benzonitrile and 2-(((1R,3R)-1-amino-3-(trifluoromethyl)cyclohexyl)methoxy)-4-(imidazo[1,2-a]pyridin-3-yl)-6-(methylthio)benzonitrile]		
			4.8	14	CC[C@@H]1CCC[C@](N)(COc2cc(-c3cnc4cccc(OC)n34)cc(OC)c2C#N)C1 [Example 16, 2-(((1R,3R)-1-Amino-3-ethylcyclohexyl)methoxy)-6-methoxy-4-(5-methoxyimidazo[1,2-a]pyridin-3-yl)benzonitrile and 2-(((16,36)-1-Amino-3-ethylcyclohexyl)methoxy)-6-methoxy-4-(5-methoxyimidazo[1,2-a]pyridin-3-yl)benzonitrile]		

Compound	IC50 (SIK1) [nM]	IC50 (SIK2) [nM]	IC50 (SIK3) [nM]	IC50 ([1]; Macrophage) [nM]	EC50 ([2]; Macrophage) [nM]	IC50 [1] [nM]	EC50 [2] [nM]
3-(3-((1-Aminocyclopentyl)methoxy)-4-cyano-5-(methylthio)phenyl)pyrazolo[1,5-a]pyridine-4-carbonitrile [Example 37]	0.3	0.4	0.9			3.9	27
COCC1CCC[C@@](N)(COc2cc(-c3cnc4ccccn34)cc(SC)c2C#N)C1 (mixture of isomers) [Example 31, 2-(((1S)-1-Amino-3-(methoxymethyl)cyclohexyl)methoxy)-4-(imidazo[1,2-a]pyridin-3-yl)-6-(methylthio)benzonitrile and 2-(((1R)-1-amino-3-(methoxymethyl)-cyclohexyl)methoxy)-4-(imidazo[1,2-a]pyridin-3-yl)-6-(methylthio)benzonitrile]	0.7	1.6	4.8			13.8	36
